Experimental data published in ChEMBL document CHEMBL4673296 (J Med Chem, 2020).
pIC50: −log10 of the molar value.

Tests used:
[1] = target: T1, Serine/threonine-protein kinase ULK1 (Homo sapiens, UniProt O75385); assay: Inhibition of ULK1 (unknown origin) expressed in HEK293T cells incubated for 2 hrs by NanoBRET assay; type: cell-based
T1 sequence (O75385 whole entry): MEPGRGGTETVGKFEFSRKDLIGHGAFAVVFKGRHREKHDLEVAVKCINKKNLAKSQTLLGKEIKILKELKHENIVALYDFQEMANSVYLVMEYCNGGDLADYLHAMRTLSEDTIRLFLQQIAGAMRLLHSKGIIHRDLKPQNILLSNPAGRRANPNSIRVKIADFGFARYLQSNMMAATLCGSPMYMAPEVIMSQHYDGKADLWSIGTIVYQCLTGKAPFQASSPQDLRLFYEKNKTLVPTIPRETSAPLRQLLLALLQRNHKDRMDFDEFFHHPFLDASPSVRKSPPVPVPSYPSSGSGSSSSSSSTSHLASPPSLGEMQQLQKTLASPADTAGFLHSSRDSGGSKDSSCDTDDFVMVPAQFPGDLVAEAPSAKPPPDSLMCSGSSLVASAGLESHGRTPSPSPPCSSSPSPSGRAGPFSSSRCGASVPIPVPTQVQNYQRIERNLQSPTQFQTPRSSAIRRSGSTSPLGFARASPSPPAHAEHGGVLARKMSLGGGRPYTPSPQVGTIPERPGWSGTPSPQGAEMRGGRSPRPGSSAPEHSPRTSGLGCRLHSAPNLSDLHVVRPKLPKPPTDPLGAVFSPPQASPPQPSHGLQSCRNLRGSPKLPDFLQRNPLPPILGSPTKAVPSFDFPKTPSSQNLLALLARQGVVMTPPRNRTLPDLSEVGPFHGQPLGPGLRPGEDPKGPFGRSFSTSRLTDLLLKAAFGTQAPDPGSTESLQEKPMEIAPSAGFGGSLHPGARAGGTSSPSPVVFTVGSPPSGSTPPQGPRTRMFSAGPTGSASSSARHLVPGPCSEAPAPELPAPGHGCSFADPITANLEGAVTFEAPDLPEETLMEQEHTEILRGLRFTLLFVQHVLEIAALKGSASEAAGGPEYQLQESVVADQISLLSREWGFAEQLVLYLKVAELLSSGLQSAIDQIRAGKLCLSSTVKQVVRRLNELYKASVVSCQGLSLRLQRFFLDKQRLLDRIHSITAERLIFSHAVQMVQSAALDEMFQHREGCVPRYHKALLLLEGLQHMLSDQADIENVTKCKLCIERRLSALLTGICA

MDA-MB-468 [2] = assay: Induction of apoptosis in human MDA-MB-468 cells assessed as viable cells at 10 uM measured after 18 hrs in normal growth media by AnnexinV/7-AAD staining based flow cytometric analysis (reference value: 87.4%); type: functional; settings: read-out: Activity
MDA-MB-468 [3] = assay: Induction of apoptosis in human MDA-MB-468 cells assessed as early apoptotic cells at 10 uM measured after 18 hrs in normal growth media by AnnexinV/7-AAD staining based flow cytometric analysis (reference value: 5.6%); type: functional
MDA-MB-468 [4] = assay: Induction of apoptosis in human MDA-MB-468 cells assessed as early apoptotic cells at 10 uM measured after 18 hrs in low-glucose, amino acid-free Earles balanced salt solution (EBSS) media by AnnexinV/7-AAD staining based flow cytometric analysis (reference value: 5.6%); type: functional
MDA-MB-468 [5] = assay: Induction of apoptosis in human MDA-MB-468 cells assessed as late apoptotic cells at 10 uM measured after 18 hrs in low-glucose, amino acid-free Earles balanced salt solution (EBSS) media by AnnexinV/7-AAD staining based flow cytometric analysis (reference value: 7.6%); type: functional

COc1ccc(Nc2ncc(C(F)(F)F)c(NC3CC3)n2)cc1OC
pIC50 [1]: 6.48
viability at 10 µM (MDA-MB-468 [2]): 64.1%
Activity (MDA-MB-468 [3]): 28.9%
Activity (MDA-MB-468 [4]): 42.9%
Activity (MDA-MB-468 [5]): 18.4%
